From patent publication US4347371A, “Disulfide compounds” (Santen Pharmaceutical Co., Ltd., priority 1978, dated 1982)
pIC50: −log10 of the molar value. Where two headings read alike, the source gives them in different places.

Experiments:
[1] = test system: angiotensin I-converting enzyme; experiment: Suppressive effect on the pressor response to angiotensin I in unanesthetized rats, oral administration (angiotensin I-converting enzyme inhibition); assay type: in vivo, Male Wistar strain rats; details: rat, angiotensin I 300 ng/kg i.v.
Experimental: As recently it has been clear that the compounds inhibiting angiotensin I-converting enzyme may be the curative potency against both renal hypertension and essential hypertension, the compounds [I] of this invention are evaluated as antihypertensive agents by the following method.
Male Wistar strain rats weighing 200-300 g were used. Under ether anesthesia, polyethylene cannulae are inserted into carotid artery and jugular vein. The cannula to carotid artery is connected to an electric transducer, while the cannula to jugular vein is connected to an apparatus for continuous infusion. After the complete recovery from anesthesia, angiotensin I is infused intravenously in a dose of 300 ng/kg by the apparatus for continuous infusion, and the pressor response is recorded by polygraph (Nihon Koden, RM-150). The compounds of this invention suspended in 0.5% tragacanth solution are administered orally in a dose of 0.3 ml per 100 g of body weight, and the pressor response to angiotensin I infused intravenously is measured with time.

[2] = target: T1, Aldose reductase (Rattus norvegicus, UniProt P07943); experiment: Inhibitory activity against aldose reductase purified from rat lenses (absorbance at 340 nm); assay type: biochemical
T1 construct: Aldose reductase is purified from rat lenses; from tissue; host or cells: rat lens

[3] = Acute toxicity test in mice, oral; set-up: species or system male ddy-std. strain mice; details: mouse, in vivo, male ddy-std. mice, 0.5% tragacanth suspension
Experimental: The male ddy-std. strain mice (4 weeks of age, weighing 19-21 g) were placed in a breeding room of constant temperature and humidity (23°±1° C., 55±5%) and fed freely pellet diet (CE-2, Clea Japan, Inc.) and water ad. libitum for a week. The mice showing the normal growth were selected for the experiment.
Test compound is suspended in 0.5% tragacanth solution, and administered orally in a dose of 0.5 ml per 20 g B.W.

[4] = pH 6.2, DL-glyceraldehyde 4×10^-4 M, NADPH 5×10^-5 M, read-out: IC50 (molar concentration producing 50% inhibition of aldose reductase)

| Structure (SMILES) | pIC50 [2, 4] | Inhibition (%) of pressor response to angiotensin I ([1]; dose 1.0 mg/kg oral, 25 min) [%] | Inhibition (%) of pressor response to angiotensin I ([1]; dose 1.0 mg/kg oral, 65 min) [%] | further results |
| --- | --- | --- | --- | --- |
| O=C(O)C1CCC(c2ccccc2O)N1C(=O)CCS (single isomer, unassigned) [Compound 27A, α-(+)5-(2-hydroxyphenyl)-1-(3-mercaptopropanoyl)-2-pyrrolidinecarboxylic acid, reference compound] |  |  |  | Inhibition (%) of pressor response to angiotensin I ([1]; dose 1.3 mg/kg oral, 25 min): 70%; Inhibition (%) of pressor response to angiotensin I ([1]; dose 1.3 mg/kg oral, 65 min): 50% |
| O=C(O)C1CCC(c2ccccc2O)N1C(=O)CCSSCCC(=O)N1C(C(=O)O)CCC1c1ccccc1O (single isomer, unassigned) [Compound 27] |  |  |  | Inhibition (%) of pressor response to angiotensin I ([1]; dose 1.3 mg/kg oral, 25 min): 65%; Inhibition (%) of pressor response to angiotensin I ([1]; dose 1.3 mg/kg oral, 65 min): 55% |
| O=C(O)[C@@H]1CSC(c2ccccc2O)N1C(=O)CCSSCCC(=O)N1C(c2ccccc2O)SC[C@H]1C(=O)O (stereo partly drawn) [Compound 1, (4R,4'R)-3,3'-[3,3'-Dithiobis(propanoyl)]bis[2-(2-hydroxyphenyl)-4-thiazolidinecarboxylic acid]] | 7.01 | 45 | 55 | LD50 [3]: 15000 mg/kg |
| O=C(O)[C@@H]1CSC(c2ccccc2O)N1C(=O)CCS (stereo partly drawn) [Compound 1A, (4R)2-(2-hydroxyphenyl)-3-(3-mercaptopropanoyl)-4-thiazolidinecarboxylic acid, reference compound] |  | 55 | 35 |  |
| C[C@H](CSSC[C@@H](C)C(=O)N1C(c2ccccc2O)SC[C@H]1C(=O)O)C(=O)N1C(c2ccccc2O)SC[C@H]1C(=O)O (stereo partly drawn) [Compound 2, (4R,4'R)-3,3'-[3,3'-Dithiobis[(2S)-2-methylpropanoyl]]bis[2-(2-hydroxyphenyl)-4-thiazolidinecarboxylic acid]] | 7.01 |  |  | Inhibition (%) of pressor response to angiotensin I ([1]; dose 1.4 mg/kg oral, 25 min): 30%; Inhibition (%) of pressor response to angiotensin I ([1]; dose 1.4 mg/kg oral, 65 min): 35% |
| C[C@H](CS)C(=O)N1C(c2ccccc2O)SC[C@H]1C(=O)O (stereo partly drawn) [Compound 2A, (4R)2-(2-hydroxyphenyl)-3-[(2S)-3-mercapto-2-methylpropanoyl]-4-thiazolidinecarboxylic acid, reference compound] |  |  |  | Inhibition (%) of pressor response to angiotensin I ([1]; dose 1.4 mg/kg oral, 25 min): 40%; Inhibition (%) of pressor response to angiotensin I ([1]; dose 1.4 mg/kg oral, 65 min): 30% |
| CC(=O)Oc1ccccc1C1SC[C@@H](C(=O)O)N1C(=O)CCSSCCC(=O)N1C(c2ccccc2OC(C)=O)SC[C@H]1C(=O)O (stereo partly drawn) [Compound 3, (4R,4'R)-3,3'-[3,3'-Dithiobis(propanoyl)]bis[2-(2-acetoxyphenyl)-4-thiazolidinecarboxylic acid]] | 6.06 | 15 | 55 |  |
| O=C(O)[C@@H]1CSC(c2ccccc2O)N1C(=O)CCCSSCCCC(=O)N1C(c2ccccc2O)SC[C@H]1C(=O)O (stereo partly shown) [Compound 4] | 7.02 |  |  |  |
| O=C(O)[C@@H]1CSC(c2ccccc2)N1C(=O)CCSSCCC(=O)N1C(c2ccccc2)SC[C@H]1C(=O)O (stereo partly shown) [Compound 7] | 6.70 |  |  |  |
| Cc1ccc(C2SC[C@@H](C(=O)O)N2C(=O)[C@H](C)CSSC[C@@H](C)C(=O)N2C(c3ccc(C)cc3)SC[C@H]2C(=O)O)cc1 (stereo partly drawn) [Compound 8, (4R,4'R)-3,3'-[3,3'-dithiobis[(2S)-2-methylpropanoyl]]bis[2-(4-methylphenyl)-4-thiazolidinecarboxylic acid]] | 6.35 |  |  |  |
| O=C(O)[C@@H]1CSC(c2cccc(O)c2)N1C(=O)CCSSCCC(=O)N1C(c2cccc(O)c2)SC[C@H]1C(=O)O (stereo partly shown) [Compound 10] | 6.14 |  |  |  |
| C[C@H](CSSC[C@@H](C)C(=O)N1C(c2cc(Cl)ccc2O)SC[C@H]1C(=O)O)C(=O)N1C(c2cc(Cl)ccc2O)SC[C@H]1C(=O)O (stereo partly drawn) [Compound 11, (4R,4'R)-3,3'-[3,3'-dithiobis[(2S)-2-methylpropanoyl]]bis[2-(5-chloro-2-hydroxyphenyl)-4-thiazolidinecarboxylic acid]] | 6.19 |  |  |  |
| O=C(O)[C@@H]1CSC(c2ccccc2O)N1C(=O)CSSCC(=O)N1C(c2ccccc2O)SC[C@H]1C(=O)O (stereo partly shown) [Compound 15] | 6.51 |  |  |  |
| C[C@H](CSSC[C@@H](C)C(=O)N1C(c2cccc3ccccc23)SC[C@H]1C(=O)O)C(=O)N1C(c2cccc3ccccc23)SC[C@H]1C(=O)O (stereo partly shown) [Compound 24] | 6.06 |  |  |  |
| CCCSSCCC(=O)N1C(c2ccccc2O)SC[C@H]1C(=O)O (stereo partly drawn) [Compound 34, (4R)-2-(2-Hydroxyphenyl)-3-(3-propyldisulfanylpropanoyl)-4-thiazolidinecarboxylic acid] | 6.07 | 45 | 55 |  |
| COc1ccc(C2SC[C@@H](C(=O)O)N2C(=O)[C@H](C)CS)cc1 (stereo partly drawn) [Compound 37A, (4R)3-[(2S)-3-mercapto-2-methylpropanoyl]-2-(4-methoxyphenyl)-4-thiazolidinecarboxylic acid, reference compound] |  | 40 | 20 |  |
| C=CCSSC[C@@H](C)C(=O)N1C(c2ccc(OC)cc2)SC[C@H]1C(=O)O (stereo partly shown) [Compound 37] |  | 60 | 35 |  |
| O=C(O)[C@@H]1CSC(c2ccccc2O)N1C(=O)CCSSCC1CCCO1 (stereo partly shown) [Compound 39] | 6.08 |  |  |  |
| O=C(O)CCSSCCC(=O)N1C(c2ccccc2O)SC[C@H]1C(=O)O (stereo partly drawn) [Compound 41, (4R)-3-[3-(2-Carboxyethyldisulfanyl)propanoyl]-2-(2-hydroxyphenyl)-4-thiazolidinecarboxylic acid] | 7.70 |  |  | Inhibition (%) of pressor response to angiotensin I ([1]; dose 1.3 mg/kg oral, 25 min): 50%; Inhibition (%) of pressor response to angiotensin I ([1]; dose 1.3 mg/kg oral, 65 min): 60% |
| CCCSSC[C@@H](C)C(=O)N1CSC[C@H]1C(=O)O [Compound 43, (4R)-3-[(2S)-2-methyl-3-propyldisulfanylpropanoyl]-4-thiazolidinecarboxylic acid] |  | 70 | 40 |  |
| C[C@H](CS)C(=O)N1CSC[C@H]1C(=O)O [Compound 43A, (4R)3-[(2S)-3-mercapto-2-methylpropanoyl]-4-thiazolidinecarboxylic acid, reference compound] |  | 50 | 30 |  |
| CC(C)(C)C(=O)OCOC(=O)[C@@H]1CSC(c2ccccc2O)N1C(=O)CCSSCCC(=O)N1C(c2ccccc2O)SC[C@H]1C(=O)OCOC(=O)C(C)(C)C (stereo partly drawn) [Compound 49, Bis[(2,2-dimethyl-1-oxopropoxy)methyl](4R,4'R)-3,3'-[3,3'-dithiobis(propanoyl)]bis[2-(2-hydroxyphenyl)-4-thiazolidinecarboxylate]] |  |  |  | Inhibition (%) of pressor response to angiotensin I ([1]; dose 1.3 mg/kg oral, 25 min): 35%; Inhibition (%) of pressor response to angiotensin I ([1]; dose 1.3 mg/kg oral, 65 min): 60% |
| C[C@@H]1O[C@@H](Oc2c(-c3ccc(O)c(O)c3)oc3cc(O)cc(O)c3c2=O)[C@H](O)[C@H](O)[C@H]1O [Control, Quercitrin, reference compound] |  |  |  | pIC50 [2]: 7.05 |
